Reference: patent US11726082B2, “Screening method of drug candidates for treating disease using interaction between calcium and phosphatidylinositol phosphate” (Gachon University of Industry—Academic Cooperation …, priority 2017, dated 2023)
Entries after “also recorded” stand apart in the source; their conditions may differ.

Tests used:
[1] = target: T1, PH domain of the purified Akt protein (Homo sapiens, UniProt P31749); test: ITC of binding of PH domain of purified Akt protein to phospholipids; details: increase of the calcium concentration
T1 construct: His6 (C); made in house; host or cells: E. coli BL21 (DE3), pET28a vector
Description: (§1) Particularly, a protein solution was prepared by suspending a protein in 10 mM HEPES (pH 7.0). Phospholipid related ligand was titrated in the protein solution at 25° C. by using iTC200 micro calorimetry system (MicroCal Inc., USA), and the generated graph was corrected using Origin software (MicroCal Inc., USA). At this time, the phospholipid related ligand was prepared in the form of liposome by mixing POPC (1-palmitoyl-2-oleoyl-sn-glycero-3-phosphocholin) chloroform solution and POPS (1-palmitoyl-2-oleoyl-sn-glycero-3-phosphoserine), PI(3,4)P2 (1,2-dipalmotoyl-sn-glycero-3-phosphatidylinositol-3,4-[…]), PI(4,5)P2 (1,2-dipalmotoyl-sn-glycero-3-phosphatidylinositol-4,5-trisphosphate) or PI(3,4,5)P3 (1,2-dipalmotoyl-sn-glycero-3-phosphatidylinositol-3,4,5-trisphosphate) at the molar ratio of 80:20. The organic solvent was eliminated. The organic solvent was removed and a single layer lamellar was produced in HEPES (pH 7.0) using phospholipids.

PH domain of Akt protein = target: T2, PH domain of Akt protein (Homo sapiens, UniProt P31749); test: Protein-lipid binding assay (PIP-strips) with PH domain of Akt protein; details: calcium 0, 0.05 or 0.1 mM
T2 construct: His6 (C); made in house; host or cells: E. coli BL21 (DE3), pET28a vector
Description: E. coli BL21 (DE3) cells were transfected with a vector containing the PH domain of Akt protein, and the cells were cultured in 50 Ml of LB medium supplemented with 50 μg/Ml of kanamycin. The culture was performed at 37° C. for 8 hours. Upon completion of the culture, the cells were transferred into a 25° C. agitation incubator. The cells were cultured until OD600 reached 0.6 to 1.0, and then 1 mM IPTG (isopropyl-β-D-1-thiogalactopyranoside) was added thereto. 18 hours after the addition of IPTG, centrifugation was performed at 7,000×g at 4° C. for 10 minutes to obtain cells. Sonication equilibrium buffer (150 mM NaCl, 50 mM Tris-HCl, pH 7.6) was added to the obtained cells. The cells added with the sonication equilibrium buffer were lysed by sonication. The PH domain of Akt protein was purified from the cell lysate by […] using nickel-nitrilotriacetic acid and HiLoad Superdex-200 column (GE Healthcare life science, USA). The purity of the purified protein was examined by SDS-PAGE (sodium dodecyl sulfate polyacrylamide gel electrophoresis).
Particularly, the analysis was performed by using membrane-immobilized lipid strips (PIP-strips, Echelon Biosciences Inc., USA). […]

[2] = test system: cells having an increased intracellular calcium concentration; test: Calcium concentration in cells having an increased intracellular calcium concentration; format: cell-based; details: cells having an increased intracellular calcium concentration treated with verapamil
Akt protein [3] = test: Western blotting of Akt protein phosphorylation in insulin-treated HepG2 cells; format: cell-based, human; details: verapamil 0, 5, 10 or 100 nM, with or without insulin
Description: First, male C57BL/6 mice at 8 weeks were divided into the fasted group wherein the mice were fasted for 16 hours and the refed group wherein the mice were fasted for 16 hours and then fed for 4 hours. Each group was sub-divided into the high fat diet group (HFD) and the normal diet group (chow). The liver cells were extracted from the raised mice by the same manner and under the same conditions as described in Example 1. The extracted liver cells were lysed in a lysis buffer containing phosphatase (Sigma-Aldrich, USA) and protease inhibitor (Sigma-Aldrich, USA). Proteins extracted from 2 to 3 mg of the liver tissue were homogenized by using a tissue homogenizer (TissuLyser, Qiagen, USA) for 1.5 minutes at a frequency of 1/30 sec. The homogenized lysate was centrifuged at 12,000 rpm for 15 minutes and the supernatant was obtained. The amount of the extracted protein was quantified by using a protein assay kit (Bio-Rad Laboratories, USA), and at this time BSA was used as a standard sample. 3 mg of the protein was mixed with 6× loading buffer, followed by electrophoresis using 10% SDS-PAGE gel. The electrophoresed protein was transferred onto a polyvinylidene fluoride (PVDF) membrane by using a transfer buffer at 4° C. with 120 V for 1.5 hours. The PVDF membrane on which the protein was transferred was pretreated with a blocking buffer prepared by mixing 5% skim milk with TBS buffer (TBS-T, pH 7.6) supplemented with Tween 20 for 30 minutes, and the membrane was washed with TBS-T. The washed membrane was added with the antibody against Akt (Cell Signaling Technology, USA), Akt(T308) (Cell Signaling Technology, USA), Akt(S473) (Cell Signaling Technology, USA), FOXO3A (Cell Signaling Technology, USA), FOXO3A(S253) (Cell Signaling Technology, USA), GSK-3β (Cell Signaling Technology, USA) or GSK-3β(S9) (Cell Signaling Technology, USA) protein as a primary antibody, followed by reaction at 4° C. for 12 hours. At this time, the antibody against actin (Santa Cruz Biotechnology, USA) protein was used for the control group. Upon completion of the reaction, the secondary antibody corresponding to the primary antibody was added thereto, followed by reaction at room temperature for 30 minutes. The PVDF membrane was washed with TBS-T buffer three times. The washed PVDF membrane was added with ECL solution (Thermo Scientific, USA), followed by image observation.
To investigate the changes in insulin sensitivity when insulin was added to the fatty liver cell model constructed in vitro, the phosphorylations of those proteins that were involved in insulin signal transduction were examined. PA was added to the human HepG2 cells prepared in Example 3, followed by reaction for 24 hours. […]

CHO cells = test: Migration of mCherry-tagged PH or C2 domain to the cell membrane, fluorescence microscopy; format: cell-based
Text: First, the PH domain of Akt1 protein or C2 domain of PKCβ protein was obtained by PCR using the primers consisting of the nucleotide sequences represented by […]. The obtained PCR product was cloned in pmCherry-C1 vector (Takara Clontech, Japan) by the conventional cloning method. CHO cells were transfected with the prepared vector by using lipofectamine according to the manufacturer's protocol. The transfected cells were selected by using blastidicin. Then, mCherry positive cells were confirmed by flow cytometry.
PMA at the concentration of 100 nM, ionomycin at the concentration of 10 μM or insulin at the concentration of 100 nM was added to the cells expressing the PH domain of Akt1 protein or the C2 domain of PKCβ protein and the location of the expressed protein was confirmed by fluorescence microscopy.

[4] = Protein-lipid binding assay with PKCβ protein C2 domain, PI(3,4,5)P3; details: calcium 0, 0.05 or 0.1 mM
Description: (§2) Particularly, the analysis was performed by using membrane-immobilized lipid strips (PIP-strips, Echelon Biosciences Inc., USA). At this time, the membrane was loaded with LPA (lysophosphatidic acid), LPC (lysophosphatidylcholine), PI (phosphatidylinositol), PE (phosphatidylethanolamine), PC (phosphatidylcholine), S1P (sphingosine 1-phosphate), PA (phosphatidic acid) or PS (phosphatidylserine) at the concentration of 100 pmol, to which calcium was added at the concentration of 0, 0.05 or 0.1 mM. Each membrane was pre-treated with a blocking buffer [fatty acid free 3% BSA (bovine serum albumin), 0.1% (v/v) Tween 20 and TBS (Tris-buffered saline), pH 7.5] at room temperature for 30 minutes. The PH domain of Akt protein purified in Example <7-1> was suspended in a blocking buffer at the concentration of 3.5 mg/Ml. The suspended protein was reacted with the membrane-immobilized lipid strip at room temperature for 30 minutes. The protein bound with lipid was identified by using the PH domain antibody.
(§3) To investigate whether or not the binding of the PKCβ protein C2 domain purified in Example <8-1> to PI(4,5)P2 or PI(3,4,5)P3 was inhibited by calcium, protein lipid binding assay and ITC were performed. […]

[5] = ITC of PKCβ protein C2 domain with PI(3,4,5)P3 liposome; format: binding
Description: as §1
In the meantime, in ITC, the phospholipid related ligand was prepared in the form of liposome by mixing POPC chloroform solution and PI(3,4,5)P3 at the molar ratio of 80:20. Then, ITC was performed by the same manner under the same conditions as described in Example <7-3> except that the PKCβ protein C2 domain or D187/193A, the C2 domain mutant, was used.

[6] = Protein-lipid binding assay with PKCβ protein C2 domain, PI(4,5)P2; details: calcium 0, 0.05 or 0.1 mM
Description: as §2, §3

Akt protein [7] = test: Western blot of Akt activation in HepG2 cells transfected with C2-Akt fusion protein or wild type Akt and PI3K; format: cell-based, human; details: increase of calcium concentration (PMA 0, 10, 50 or 100 nM, ionomycin 20 μM, 1 hour)
Text: First, the C2 domain of PKCβ protein and Akt protein (SEQ. ID. NO: 15) were obtained by PCR using the primers consisting of the nucleotide sequences represented by SEQ. ID. NO: 9˜SEQ. ID. The obtained PCR product was cloned in pEGFP-C2 vector by the conventional cloning method, resulting in the construction of a vector expressing the C2 domain/Akt protein fusion protein (SEQ. ID. NO: 17) (C2-Akt fusion protein). At this time, as the control group, a vector expressing the wild type Akt protein containing the PH domain was prepared.
HepG2 cells were transfected with the vector expressing the C2-Akt fusion protein constructed above along with the vector expressing PI3K protein by using lipofectamine according to the manufacturer's protocol. The transfected cells were treated with PMA at the concentration of 0, 10, 50 or 100 nM ionomycin at the concentration of 20 μM, followed by reaction for 1 hour. Western blot analysis was performed with the cells above. […]

T2 sequence (P31749 1-144): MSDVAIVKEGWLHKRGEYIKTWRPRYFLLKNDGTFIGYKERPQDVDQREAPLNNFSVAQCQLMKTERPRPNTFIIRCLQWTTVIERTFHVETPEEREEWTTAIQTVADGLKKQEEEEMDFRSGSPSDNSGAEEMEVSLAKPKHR
T1 sequence (P31749 1-144): as above

## [Ca+2] [calcium]
[1]
  binding of PH domain of Akt protein to PI(3,4)P2, PI(4,5)P2, PI(3,4,5)P3 or PS: inhibited
PH domain of Akt protein
  binding of PH domain of Akt protein to PI(3,4)P2 or PI(3,4,5)P3: inhibited

## COc1ccc(CCN(C)CCCC(C#N)(c2ccc(OC)c(OC)c2)C(C)C)cc1OC (stereo not drawn) [verapamil]
[2]
  increased calcium concentration: inhibited; also recorded: reduced
Akt protein [3]
  phosphorylation of Akt protein: increased

## C2 domain of PKCβ protein: C2 domain of PKCβ protein (SEQ. ID. NO: 14)
CHO cells; addition of insulin 100 nM
  migration to the cell membrane: did not migrate
CHO cells; increased intracellular calcium concentration (PMA 100 nM, ionomycin 10 μM)
  migration to the cell membrane: migrated; also recorded: promoted
[4]
  binding to PI(3,4,5)P3: strongly bound; also recorded: promoted
[5]; absence of calcium
  binding to PI(3,4,5)P3: not induced
[5]; increased calcium concentration
  binding to PI(3,4,5)P3: combined
[5]; increased calcium concentration, listed as PKCβ protein C2 domain
  binding to PI(3,4,5)P3: strongly bound
[6]
  binding to PI(4,5)P2: strongly bound; also recorded: promoted

## wild type Akt protein: wild type Akt protein containing the PH domain, control
Akt protein [7]
  Akt protein activation by PI3K: inhibited
